Results as given in US5166208A, “Fredericamycin A derivatives” (Boston College, priority 1991, dated 1992).
Values after ≈ are worked out from the molar mass of the structure shown. Counter-ions that a name gives are not always drawn.

Columns and labels:
[1] = test system: human lung (A549); assay: In vitro microdilution inhibition, human lung A549; type: cell-based; settings: A549, 72 hours, 50% of cells killed
From the text: (§1) As shown in Table III the compounds of the present invention exert an in vitro antitumor effect. The following cells lines were employed: human lung (A549); resistant human lung with low topo II activity (A549-VP); murine melanoma (B16); human colon tumor (HCT116); human colon tumor with elevated p170 levels (HCTVM); human colon tumor with low topo II activity (HCTVP); and another human colon carcinoma cell line (Moser). In the Table, the designation "NT" indicates the compound was not tested against the specified cell line. The cell lines were maintained in continuous culture at 37°, 5% CO2 and high humidity. Cells were harvested in log phase growth and suspended at concentration of 25,000 cells/mL. A […] aliquot was then added to each well (i.e., 3,750 cells per well) of a 96-well flat bottom plate and the cells were allowed to attach over a 24 hour period. After this 24 hour incubation, a 50 μL sample of the specified compound was added to the first (top) well of each column, and the remaining wells of each column serially diluted, 1:4, and allowed to incubate for 72 hours at 37° C., 5% CO2 and high humidity. Following incubation, 50 μL of freshly prepared stain solution was added to each well. After a 3 hour incubation at room temperature, absorbance was read at 450 nm on a microplate reader to determine the compound concentration at which 50% of the cells were killed, such concentration referred to as the "IC50 ".

[2] = test system: resistant human lung with low topo II activity (A549-VP); assay: In vitro microdilution inhibition, resistant human lung A549-VP; type: cell-based; settings: A549VP, 72 hours, 50% of cells killed
From the text: as §1

[3] = test system: murine melanoma (B16); assay: In vitro microdilution inhibition, B16; type: cell-based; settings: Mus musculus; B16, 72 hours, 50% of cells killed
From the text: as §1

[4] = test system: human colon tumor (HCT116); assay: In vitro microdilution inhibition, HCT116; type: cell-based; settings: HCT-116, 72 hours, 50% of cells killed
From the text: as §1

[5] = test system: human colon tumor with elevated p170 levels (HCTVM); assay: In vitro microdilution inhibition, HCTVM; type: cell-based; settings: 72 hours, 50% of cells killed
From the text: as §1

[6] = test system: human colon tumor with low topo II activity (HCTVP); assay: In vitro microdilution inhibition, HCTVP; type: cell-based; settings: 72 hours, 50% of cells killed
From the text: as §1

[7] = test system: p388 murine leukemia; assay: In vivo activity against p388 murine leukemia in an acute mouse model; settings: CDF1 (female only); for AWC (average weight change per mouse): before treatment to day five
Procedure: CDF1 mice of both sexes weighing between 16 and 25 gm. were used, with a 2 gm. weight range and same sex and source used per experiment. BDF1 mice also were used with the same weight, sex and source parameters. Control and test animals were injected interperitoneally with suspension of 1×10^6 p388 murine leukemia cells (0.5 mL dose) on day 0. Groups of 4-6 mice were used for each dosage amount they were treated with 5 doses on day one. A group of ten saline treated control mice was included in each set of experiments. A 30 day protocol was employed with mean survival time in days being determined for each group of mice with the number of survivors at the end of the 30 day period being noted. The mice were weighed before treatment and again on day five. The values listed for average weight change (AWC) is the average weight change per mouse at the specified dose. The change in weight was taken as a measure of drug toxicity. A loss in weight of up to 2 grams is not considered excessive. The results were determined in terms of % T/C which is the ratio of the mean survival time of the treated group to the mean survival time of the saline treated group times 100.

Row | Compound | IC50 [1] [µg/mL] | IC50 [2] [µg/mL] | IC50 [3] [µg/mL] | IC50 [4] [µg/mL] | IC50 [5] [µg/mL] | IC50 [6] [µg/mL] | other results
1 | CCSC1=C(SCC)C(=O)c2c(O)c3c(c(O)c2C1=O)C(=O)C1(CCc2cccc(OCOC)c21)C3=O [Example 30] | 7 (≈ 12.9 µM) | > 16 | 1.8 (≈ 3.33 µM) | 1.2 (≈ 2.22 µM) | 3 (≈ 5.55 µM) | 2.2 (≈ 4.07 µM) | –
2 | NCCSSCCNC1=CC(=O)c2c(O)c3c(c(O)c2C1=O)C(=O)C1(CCc2cccc(O)c21)C3=O (centres unmarked) [Example 35, 2',3'-Dihydro-7'-hydroxy-1H-indene-1'-spiro-2-[4,9-dihydroxy-6-(2(2-aminoethyldithio)ethylamino)-2H-benz[f]indene-1,3,5,8-tetrone] hydrochloride] | – | – | 24 | – | – | 22 | –
3 | COCOc1cccc2c1C1(CC2)C(=O)c2c(O)c3c(c(O)c2C1=O)C(=O)C(NCC(F)(F)F)=CC3=O (centres unmarked) [Example 13, 2',3'-Dihydro-6-(2,2,2-trifluoroethylamino)-7'-(methoxymethoxy)-1H-indene-1'-spiro-2-[4,9-dihydroxy-2H-benz[f]-indene-1,3,5,8-tetrone]] | < 0.03 | 0.05 (≈ 0.0966 µM) | 0.03 (≈ 0.058 µM) | 0.03 (≈ 0.058 µM) | 0.03 (≈ 0.058 µM) | 0.04 (≈ 0.0773 µM) | –
4 | N=C(N)NCCC[C@H](NC1=CC(=O)c2c(O)c3c(c(O)c2C1=O)C(=O)C1(CCc2cccc(O)c21)C3=O)C(=O)O (some centres unmarked) [Example 28] | – | – | > 500 | 71 (≈ 129 µM) | – | – | –
5 | O=C1C=CC(=O)c2c(O)c3c(c(O)c21)C(=O)C1(CCc2ccccc21)C3=O [Example 4, 2',3'-Dihydro-1H-indene-1'-spiro-2-[4,9-dihydroxy-2H-benz[f]-indene-1,3,5,8-tetrone]] | 1.5 (≈ 4.16 µM) | 2.3 (≈ 6.38 µM) | 1 (≈ 2.78 µM) | 0.3 (≈ 0.833 µM) | 0.3 (≈ 0.833 µM) | 0.4 (≈ 1.11 µM) | –
6 | COC1=CC(=O)c2c(O)c3c(c(O)c2C1=O)C(=O)C1(CCc2cccc(O)c21)C3=O (centres unmarked) [Example 6, 2',3'-Dihydro-7'-hydroxy-6-methoxy-1H-indene-1'-spiro-2-[4,9-dihydroxy-2H-benz[f]indene-1,3,5,8-tetrone]] | 4.9 (≈ 12.1 µM) | 6.4 (≈ 15.8 µM) | 5.2 (≈ 12.8 µM) | 1.6 (≈ 3.94 µM) | 1.7 (≈ 4.18 µM) | 3.5 (≈ 8.61 µM) | –
7 | COCOc1cccc2c1C1(CC2)C(=O)c2c(O)c3c(c(O)c2C1=O)C(=O)C(NCC(O)c1ccccc1)=CC3=O (centres unmarked) [Example 17, 2',3'-Dihydro-7'-(methoxymethoxy)-1H-indene-1'-spiro-2-[6-(2-hydroxy-2-phenyl-ethylamino)-4,9-dihydroxy-2H-benz[f]indene-1,3,5,8-tetrone]] | – | – | 15 (≈ 27 µM) | 1.47 (≈ 2.65 µM) | – | – | –
8 | COCOc1cccc2c1C1(CC2)C(=O)c2c(O)c3c(c(O)c2C1=O)C(=O)C(SCCO)=CC3=O (centres unmarked) [Example 33, 2',3'-Dihydro-7'-(methoxymethoxy)-1H-indene-1'-spiro-2-[4,9-dihydroxy-6-(2-hydroxyethylmercapto)-2H-benz[f]indene-1,3,5,8-tetrone]] | – | – | 107 (≈ 216 µM) | 5.08 (≈ 10.2 µM) | – | – | –
9 | O=C1C(Sc2ccccc2)=C(Sc2ccccc2)C(=O)c2c(O)c3c(c(O)c21)C(=O)C1(CCc2cccc(O)c21)C3=O [Example 32, 2',3'-Dihydro-7'-hydroxy-1H-indene-1'-spiro-2-[4,9-dihydroxy-6,7-di(phenylmercapto)-2H-benz[f]indene-1,3,5,8-tetrone]] | > 16 | > 16 | > 16 | > 16 | > 16 | > 16 | –
10 | COCOc1cccc2c1C1(CC2)C(=O)c2c(O)c3c(c(O)c2C1=O)C(=O)C(NCC(=O)O)=CC3=O (centres unmarked) [Example 29, 2',3'-Dihydro-7'-(methoxymethoxy)-1H-indene-1'-spiro-2-[6-((carboxymethyl)amino)-4,9-dihydroxy-2H-benz[f]indene-1,3,5,8-tetrone]sodium salt] | 1.2 | 1.6 | 0.8 | 0.9 | 1 | 1 | –
11 | COCOc1cccc2c1C1(CC2)C(=O)c2c(O)c3c(c(O)c2C1=O)C(=O)C(N[C@@H](CC(N)=O)C(=O)O)=CC3=O (some centres unmarked) [Example 26, 2',3'-Dihydro-7'-(methoxymethoxy)-1H-indene-1'-spiro-2-4,9-dihydroxy-6-(1-carboxy-2-carbamoylethylamino)-2H-benz[f]indene-1,3,5,8-tetrone] | – | – | 9.3 (≈ 16.9 µM) | 1.23 (≈ 2.23 µM) | – | – | –
12 | COCOc1cccc2c1C1(CC2)C(=O)c2c(O)c3c(c(O)c2C1=O)C(=O)C(OC)=CC3=O (centres unmarked) [Example 5, 2',3'-Dihydro-7'-(methoxymethoxy)-6-methoxy-1H-indene-1'-spiro-2-[4,9-dihydroxy-2H-benz[f]indene-1,3,5,8-tetrone]] | 0.4 (≈ 0.888 µM) | 1.1 (≈ 2.44 µM) | 0.7 (≈ 1.55 µM) | 0.09 (≈ 0.2 µM) | 0.2 (≈ 0.444 µM) | 0.2 (≈ 0.444 µM) | –
13 | CCCCCc1cc2cc3c(c(OCOC)c2c(OC)n1)C1(CC3)C(=O)c2c(O)c3c(c(O)c2C1=O)C(=O)C(NCC)=CC3=O (centres unmarked) [Example 22, 6',7'-Dihydro-4,9-dihydroxy-6-ethylamino-1'-methoxy-9'-(methoxymethoxy)-3'-(n-pentyl)-spiro[2H-benz[f]-indene-2,8'[8H]cyclopent[g]isoquinoline]-1,3,5,8-tetrone] | – | – | – | – | – | – | AWC (average weight change per mouse) ([7]; 3.3 mg/kg): 1.5; AWC (average weight change per mouse) ([7]; 10 mg/kg): 1.0; AWC (average weight change per mouse) ([7]; 30 mg/kg): -0.2; response vs control in vivo at 3.3 mg/kg ([7]; Mus musculus, P388, 720 h, 3.3 mg/kg, read-out: % T/C (mean survival time treated/control)): 95%; response vs control in vivo at 10 mg/kg ([7]; Mus musculus, P388, 720 h, 10 mg/kg, read-out: % T/C (mean survival time treated/control)): 105%; response vs control in vivo at 30 mg/kg ([7]; Mus musculus, P388, 720 h, 30 mg/kg, read-out: % T/C (mean survival time treated/control)): 135%
14 | CCNC1=CC(=O)c2c(O)c3c(c(O)c2C1=O)C(=O)C1(CCc2cccc(OCOC)c21)C3=O (centres unmarked) [Example 11, 2',3'-Dihydro-6-ethylamino-7'-(methoxymethoxy)-1H-indene-1'-spiro-2-[4,9-dihydroxy-2H-benz[f]-indene-1,3,5,8-tetrone]] | < 0.03 | 0.03 (≈ 0.0647 µM) | 0.03 (≈ 0.0647 µM) | 0.03 (≈ 0.0647 µM) | 0.03 (≈ 0.0647 µM) | 0.03 (≈ 0.0647 µM) | –
15 | COCOc1cccc2c1C1(CC2)C(=O)c2c(O)c3c(c(O)c2C1=O)C(=O)C(Nc1ccc(SSc2ccc(N)cc2)cc1)=CC3=O (centres unmarked) [Example 36, 2',3'-Dihydro-7'-(methoxymethoxy)-1H-indene-1'-spiro-2-[4,9-dihydroxy-6-(4-(4-aminophenyldithio)phenylamino)-2H-benz[f]indene-1,3,5,8-tetrone]] | – | – | 458 (≈ 687 µM) | > 500 | – | – | –
16 | COCOc1cccc2c1C1(CC2)C(=O)c2c(O)c3c(c(O)c2C1=O)C(=O)C(NC1C(=O)N2C1SC(C)(C)C2C(=O)O)=CC3=O (centres unmarked) [Example 27, 6-((2',3'-dihydro-7'-(methoxymethoxy)-1H-indene-1'-spiro-[4,9-dihydroxy-2H-benz[f]indene-1,3,5,8-tetrone]-6-yl)amino)penicillanic acid] | – | – | 0.24 (≈ 0.378 µM) | – | – | 0.22 (≈ 0.347 µM) | –
17 | COCOc1cccc2c1C1(CC2)C(=O)c2c(O)c3c(c(O)c2C1=O)C(=O)C(Sc1ccccc1)=CC3=O (centres unmarked) [Example 34, 2',3'-Dihydro-7'-(methoxymethoxy)-1H-indene-1'-spiro-2-[4,9-dihydroxy-6-(phenylmercapto)-2H-benz[f]indene-1,3,5,8-tetrone]] | – | – | 110 (≈ 208 µM) | 78 (≈ 148 µM) | – | – | –
18 | COCOc1cccc2c1C1(CC2)C(=O)c2c(O)c3c(c(O)c2C1=O)C(=O)C(Nc1ccc(O)cc1)=CC3=O (centres unmarked) [Example 21, 2',3'-Dihydro-7'-(methoxymethoxy)-1H-indene-1'-spiro-2-[6-(4-hydroxyanilino)-4,9-dihydroxy-2H-benz[f]indene-1,3,5,8-tetrone]] | – | – | 18.7 (≈ 35.5 µM) | 6.79 (≈ 12.9 µM) | – | – | –
19 | COCOc1cccc2c1C1(CC2)C(=O)c2c(O)c3c(c(O)c2C1=O)C(=O)C(Nc1ccc(C(=O)O)cc1)=CC3=O (centres unmarked) [Example 19, 2',3'-Dihydro-7'-(methoxymethoxy)-1H-indene-1'-spiro-2-[6-(4-carboxyanilino)-4,9-dihydroxy-2H-benz[f]indene-1,3,5,8-tetrone]] | – | – | 27 (≈ 48.6 µM) | 322 (≈ 580 µM) | – | – | –
